Experimental data: PubChem BioAssay (NCI)
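Protocol summary: plate cells (96-well), add compound at 5 concentrations, incubate 48 h, interpolate endpoints linearly. TGI is the concentration that stops growth completely.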

Columns and labels:
Test in all cases: DTP human tumour cell line panel, 48 h
UO-31 renal = tested on: UO-31 renal
OVCAR-3 ovarian = tested on: OVCAR-3 ovarian
OVCAR-5 ovarian = tested on: OVCAR-5 ovarian
CAKI-1 renal = tested on: CAKI-1 renal
BT-549 breast = tested on: BT-549 breast
OVCAR-8 ovarian = tested on: OVCAR-8 ovarian
MDA-N = tested on: MDA-N
SF-295 CNS = tested on: SF-295 CNS
SW-620 colon = tested on: SW-620 colon
PC-3 prostate = tested on: PC-3 prostate
ACHN renal = tested on: ACHN renal
T-47D breast = tested on: T-47D breast
U251 CNS = tested on: U251 CNS
CCRF-CEM leukemia = tested on: CCRF-CEM leukemia
UACC-62 melanoma = tested on: UACC-62 melanoma
DU-145 prostate = tested on: DU-145 prostate
IGROV1 ovarian = tested on: IGROV1 ovarian
OVCAR-4 ovarian = tested on: OVCAR-4 ovarian
HCT-116 colon = tested on: HCT-116 colon
SNB-75 CNS = tested on: SNB-75 CNS
HOP-62 NSCLC = tested on: HOP-62 NSCLC
UACC-257 melanoma = tested on: UACC-257 melanoma
HT29 colon = tested on: HT29 colon
TK-10 renal = tested on: TK-10 renal
MALME-3M melanoma = tested on: MALME-3M melanoma
NCI-H23 lung = tested on: NCI-H23 lung
MDA-MB-435 = tested on: MDA-MB-435
A498 renal = tested on: A498 renal
786-0 renal = tested on: 786-0 renal
COLO 205 colon = tested on: COLO 205 colon
SF-268 CNS = tested on: SF-268 CNS
SN12C renal = tested on: SN12C renal
K-562 leukemia = tested on: K-562 leukemia
MOLT-4 leukemia = tested on: MOLT-4 leukemia
HCT-15 colon = tested on: HCT-15 colon
SNB-19 CNS = tested on: SNB-19 CNS
SR leukemia = tested on: SR leukemia
SK-MEL-2 melanoma = tested on: SK-MEL-2 melanoma
NCI-H226 lung = tested on: NCI-H226 lung
SK-OV-3 ovarian = tested on: SK-OV-3 ovarian
HS 578T breast = tested on: HS 578T breast
SK-MEL-28 melanoma = tested on: SK-MEL-28 melanoma
EKVX NSCLC = tested on: EKVX NSCLC
A549 NSCLC = tested on: A549 NSCLC
M14 melanoma = tested on: M14 melanoma
HCC-2998 colon = tested on: HCC-2998 colon
KM12 colon = tested on: KM12 colon
SK-MEL-5 melanoma = tested on: SK-MEL-5 melanoma
RXF 393 renal = tested on: RXF 393 renal
RPMI-8226 leukemia = tested on: RPMI-8226 leukemia
NCI/ADR-RES ovarian = tested on: NCI/ADR-RES ovarian
MDA-MB-231 breast = tested on: MDA-MB-231 breast
MCF7 breast = tested on: MCF7 breast
NCI-H522 lung = tested on: NCI-H522 lung
SF-539 CNS = tested on: SF-539 CNS
HOP-92 NSCLC = tested on: HOP-92 NSCLC
LOX IMVI melanoma = tested on: LOX IMVI melanoma
NCI-H460 lung = tested on: NCI-H460 lung

Measured: TGI

COC(=O)CCC1(C)C2CCC1/C(=N/O)C2 (configuration not stated)
not listed: SF-539 CNS | HOP-92 NSCLC | LOX IMVI melanoma | NCI-H460 lung
> 100 µM: all other assays above

Cc1ncc(CSc2ccccc2N)c(CO)c1O
not listed: UO-31 renal | CCRF-CEM leukemia | HCC-2998 colon | NCI-H460 lung
> 100 µM: all other assays above

CCc1nc(N)c2nc(-c3ccc(C#N)cc3)oc2n1
not listed: U251 CNS | OVCAR-4 ovarian | MALME-3M melanoma | SK-OV-3 ovarian
> 100 µM: all other assays above
